Results taken from patent publication EP2165709B1, “Pharmaceutical compositions comprising a lysine based compound and an HIV antiviral or antiretroviral agent” (Ambrilia Biopharma Inc., priority 2004, dated 2006).
Read-outs that look alike come from different tables or passages of the source.

What was measured:
[1] = Bioavailability: plasma concentration after oral administration to rats; format: in vivo, male Sprague-Dawley rats; conditions: rat; for Cmax / Tmax: male, Sprague-Dawley, plasma, vehicle Mix; for Cmax / Tmax / AUC / delivery of PL-100 and PL-337 compared to non-aqueous formulations of PL-100 and PL-337: 50 mg/Kg po; for delivery of PL-100 and PL-337 compared to non-aqueous formulations of PL-100 and PL-337: aqueous dosing; for administered compound detected in the blood samples: po, delivered as aqueous solutions, suggests rapid metabolism to parent drugs
Method: To assess the extent of in vivo cleavage of the phosphate group from the putative compounds, PL-100, PL-462 (based on PL-100), PL-337 and PL-515 (based on PL-337) compounds were administered po (50 mg/kg) to male Sprague-Dawley rats and their plasma concentration measured at different time intervals post-administration. All test articles (PL-100, PL-462, PL-337 and PL-515) were prepared in different vehicle at the final concentration of 25 mg/mL. The vehicle composition is as follows: (1) 20% ethanol; 50% propylene glycol; 0.05% w/v Tween 20 and water (Mix); (2) PBS buffer (PBS). Test articles were administered to male Sprague-Dawley rats at a single oral dose of 50 mg/kg. Each article was tested in three rats. Blood samples (0.2-0.3 mL) were collected at the post-dose time of 10, 20, 40, 60,120, 180 and 360 minutes. The harvested blood was centrifuged to isolate plasma. The resulting plasma was separated and stored at -70°C. Plasma samples together with standards and quality control samples were treated to precipitate proteins, then analyzed by HPLC-MS, for the presence of PL-462, PL-100, PL-515 and PL-337.

[2] = Partition coefficient (LogP), octanol / phosphate buffer pH 7.4; format: physicochemical; conditions: octanol and phosphate buffer pH 7.4 (0.04 M KHPO4), LC-MS detection
Description: The concentration of the compounds in the phases was detected by LC-MS.

[3] = vehicle Mix (20% ethanol; 50% propylene glycol; 0.05% w/v Tween 20 and water)
[4] = vehicle PBS, parent drug (PL-100 or PL-337) detected in plasma

Compound	Cmax [1] [nM]	Tmax [1] [min]	AUC [1, 3] [µg/hr*ml]	logP ([2]; read-out: LogP)	AUC [1, 4]	delivery of PL-100 and PL-337 compared to non-aqueous formulations of PL-100 and PL-337 [1]	administered compound detected in the blood samples [1]	logP [2]
COC(=O)N[C@H](C(=O)NCCCC[C@@H](CO)N(CC(C)C)S(=O)(=O)c1ccc(N)cc1)C(c1ccccc1)c1ccccc1 [PL-100, (1S,5S)-(1-{5-[(4-amino-benzenesulfonyl)-isobutyl-amino]-6-hydroxy-hexylcarbamoyl}-2,2-diphenyl-ethyl)-carbamic acid methyl ester]	498 ± 203	40	0.675 ± 0.171	3.6				
COC(=O)N[C@H](C(=O)NCCCC[C@@H](CO)N(CC(C)C)S(=O)(=O)c1ccc(N)c(F)c1)C(c1ccccc1)c1ccccc1 [PL-337, (1-{5-[(4-amino-3-fluoro-benzenesulfonyl)-isobutyl-amino]-6-hydroxy-hexylcarbamoyl}-2,2-diphenyl-ethyl)-carbamic acid methyl ester]	681 ± 131	60	1.180 ± 0.196					
COC(=O)N[C@H](C(=O)NCCCC[C@@H](COP(=O)(O)O)N(CC(C)C)S(=O)(=O)c1ccc(N)cc1)C(c1ccccc1)c1ccccc1 [PL-461, (1S,5S)-(1-{5-[(4-amino-benzenesulfonyl)-isobutyl-amino]-6-phosphonooxy-hexylcarbamoyl}-2,2-diphenyl-ethyl)-carbamic acid methyl ester]				-1.2				
COC(=O)N[C@H](C(=O)NCCCC[C@@H](COP(=O)(O)O)N(CC(C)C)S(=O)(=O)c1ccc(N)cc1)C(c1ccccc1)c1ccccc1.[Na] [PL-462, (1S,5S)-(1-{5-[(4-amino-benzenesulfonyl)-isobutyl-amino]-6-phosphonooxy-hexylcarbamoyl}-2,2-diphenyl-ethyl)-carbamic acid methyl ester sodium salt]					0.816 ± 0.295 (PL-100, detected) µg/hr*ml	equivalent to slightly superior	None	-1.2
COC(=O)N[C@H](C(=O)NCCCC[C@@H](COP(=O)(O)O)N(CC(C)C)S(=O)(=O)c1ccc(N)c(F)c1)C(c1ccccc1)c1ccccc1 [PL-515, (1S,5S)-(1-{5-[(4-amino-3-fluoro-benzenesulfonyl)-isobutyl-amino]-6-phosphonooxy-hexylcarbamoyl}-2,2-diphenyl-ethyl)-carbamic acid methyl ester]				-0.75	1.075 ± 0.625 (PL-337, detected) µg/hr*ml	equivalent to slightly superior	None	
